# Measurements published in US6387943B1, “Vancoresmycin, a process for its production and its use as a pharmaceutical” (Aventis Pharma Deutschland GmbH, priority 1998, dated 2002).
# Tests used:
# [1] = tested on: Pseudomonas aeruginosa M35; assay: Minimum inhibitory concentration (MIC); format: cell-based
# S. aureus Brussel 4115 = assay: Minimum inhibitory concentration (MIC); format: cell-based; conditions: Staphylococcus aureus, BRUSSEL4115
# Ent. faecium D-65 = assay: Minimum inhibitory concentration (MIC); format: cell-based; conditions: Enterococcus faecium, D65
# Ent. faecalis D 756 = assay: Minimum inhibitory concentration (MIC); format: cell-based; conditions: Enterococcus faecalis, D756
# Ent. faecium VR-1 = assay: Minimum inhibitory concentration (MIC); format: cell-based; conditions: Enterococcus faecium, VR1; Ent. faecium VR-1 (resistant to vancomycin)
# [2] = Solubility (physico-chemical properties); format: physicochemical; conditions: solvents in which soluble
# Ent. faecium P-2 = assay: Minimum inhibitory concentration (MIC); format: cell-based; conditions: Enterococcus faecium, P2
# [3] = tested on: vancomycin- and teicoplanin-resistant strains; assay: Antibiotic activity against resistant strains; format: cell-based
# S. haemolyticus 809 = assay: Minimum inhibitory concentration (MIC); format: cell-based; conditions: Staphylococcus haemolyticus
# Ent. faecium 5601 (H) = assay: Minimum inhibitory concentration (MIC); format: cell-based; conditions: Enterococcus faecium
# S. aureus Wein 12 = assay: Minimum inhibitory concentration (MIC); format: cell-based; conditions: Staphylococcus aureus, WEIN12
# Ent. faecium P-1 = assay: Minimum inhibitory concentration (MIC); format: cell-based; conditions: Enterococcus faecium, P1
# Ent. hirae 55 = assay: Minimum inhibitory concentration (MIC); format: cell-based; conditions: Enterococcus hirae
# S. aureus 20424 = assay: Minimum inhibitory concentration (MIC); format: cell-based; conditions: Staphylococcus aureus
# S. aureus Wein 11 = assay: Minimum inhibitory concentration (MIC); format: cell-based; conditions: Staphylococcus aureus, WEIN11
# S. epidermidis 607 = assay: Minimum inhibitory concentration (MIC); format: cell-based; conditions: Staphylococcus epidermidis
# S. aureus 503(Mers) = assay: Minimum inhibitory concentration (MIC); format: cell-based
# [4] = tested on: Staphylococcus aureus 209P; assay: Minimum inhibitory concentration (MIC); format: cell-based
# S. aureus E-712 = assay: Minimum inhibitory concentration (MIC); format: cell-based; conditions: Staphylococcus aureus, E712
# S. aureus E-710 = assay: Minimum inhibitory concentration (MIC); format: cell-based; conditions: Staphylococcus aureus, E710
# S. aureus 20240 = assay: Minimum inhibitory concentration (MIC); format: cell-based; conditions: Staphylococcus aureus
# Ent. durans 4939H = assay: Minimum inhibitory concentration (MIC); format: cell-based; conditions: Enterococcus durans
# [5] = tested on: Enterococcus faecalis ATCC 29212; assay: Minimum inhibitory concentration (MIC); format: cell-based; conditions: ATCC29212
# Escherichia coli 9632 = assay: Minimum inhibitory concentration (MIC); format: cell-based
# Ent. faecalis D 21777 = assay: Minimum inhibitory concentration (MIC); format: cell-based; conditions: Enterococcus faecalis, D21777
# Ent. faecalis D 7F = assay: Minimum inhibitory concentration (MIC); format: cell-based; conditions: Enterococcus faecalis, D7F
# S. aureus Chantot 31153 = assay: Minimum inhibitory concentration (MIC); format: cell-based; conditions: Staphylococcus aureus, CHANTOT31153
# S. epidermidis 825 = assay: Minimum inhibitory concentration (MIC); format: cell-based; conditions: Staphylococcus epidermidis
# Ent. faecalis D 23241 = assay: Minimum inhibitory concentration (MIC); format: cell-based; conditions: Enterococcus faecalis, D23241
# S. aureus SG511 = assay: Minimum inhibitory concentration (MIC); format: cell-based; conditions: Staphylococcus aureus
# S. epidermidis 5747 IW = assay: Minimum inhibitory concentration (MIC); format: cell-based; conditions: Staphylococcus epidermidis
# Ent. faecalis D 26777 = assay: Minimum inhibitory concentration (MIC); format: cell-based; conditions: Enterococcus faecalis, D26777
# S. epidermidis 823 = assay: Minimum inhibitory concentration (MIC); format: cell-based; conditions: Staphylococcus epidermidis
# S. aureus MLS-16 = assay: Minimum inhibitory concentration (MIC); format: cell-based; conditions: Staphylococcus aureus, MLS16
# S. warneri 6563 II (2) = assay: Minimum inhibitory concentration (MIC); format: cell-based; conditions: Staphylococcus warneri
# S. aureus 3066 = assay: Minimum inhibitory concentration (MIC); format: cell-based; conditions: Staphylococcus aureus; S. aureus 3066 (resistant strain to methicillin)
# E. coli super sen. 2231 = assay: Minimum inhibitory concentration (MIC); format: cell-based; conditions: Escherichia coli
smiles,measurement,setting,value
C/C(=C\CC(O)CC(O)CCC(C)C(O)C(C)C(O)CCCC(O)C(C)C(O)/C(C)=C/C(C)C(=O)/C(C)=C/C(O)C(O)CC(O)CC(OC1OC(C)C(O)C(N)C1O)C(C)CCC(O)CC(O)CCC(C)C(O)C(C)C(O)C(C)C)C(=O)C1=C(O)/C(=C/C(C)C)N(C)C1=O (stereo not shown) [Vancoresmycin],MIC,[1],> 100 µg/mL
same,MIC,S. aureus Brussel 4115,0.05 µg/mL
same,MIC,Ent. faecium D-65,0.39 µg/mL
same,MIC,Ent. faecalis D 756,0.39 µg/mL
same,MIC,Ent. faecium VR-1,0.39 µg/mL
same,Solubility,[2],"Methanol, DMSO"
same,MIC,Ent. faecium P-2,0.39 µg/mL
same,antibiotic activity,[3],active
same,MIC,S. haemolyticus 809,0.05 µg/mL
same,MIC,Ent. faecium 5601 (H),0.39 µg/mL
same,MIC,S. aureus Wein 12,0.05 µg/mL
same,MIC,Ent. faecium P-1,0.39 µg/mL
same,MIC,Ent. hirae 55,0.39 µg/mL
same,MIC,S. aureus 20424,0.1 µg/mL
same,MIC,S. aureus Wein 11,0.05 µg/mL
same,MIC,S. epidermidis 607,0.1 µg/mL
same,MIC,S. aureus 503(Mers),0.025 µg/mL
same,MIC,[4],0.05 µg/mL
same,MIC,S. aureus E-712,0.1 µg/mL
same,MIC,S. aureus E-710,0.1 µg/mL
same,MIC,S. aureus 20240,0.05 µg/mL
same,MIC,Ent. durans 4939H,0.39 µg/mL
same,MIC,[5],0.39 µg/mL
same,MIC,Escherichia coli 9632,> 100 µg/mL
same,MIC,Ent. faecalis D 21777,0.39 µg/mL
same,MIC,Ent. faecalis D 7F,0.39 µg/mL
same,MIC,S. aureus Chantot 31153,0.05 µg/mL
same,MIC,S. epidermidis 825,0.1 µg/mL
same,MIC,Ent. faecalis D 23241,0.39 µg/mL
same,MIC,S. aureus SG511,0.05 µg/mL
same,MIC,S. epidermidis 5747 IW,0.1 µg/mL
same,MIC,Ent. faecalis D 26777,0.39 µg/mL
same,MIC,S. epidermidis 823,0.2 µg/mL
same,MIC,S. aureus MLS-16,0.39 µg/mL
same,MIC,S. warneri 6563 II (2),0.1 µg/mL
same,MIC,S. aureus 3066,0.1 µg/mL
same,MIC,E. coli super sen. 2231,> 100 µg/mL
